According to patent publication EP4806435A1, “DIHYDROCHROMENE-DERIVATIVE-CONTAINING THERAPEUTIC AGENT FOR CANCER” (Sumitomo Pharma Co., Ltd., priority 2023, dated 2025):

Tests used:
[1] = tested on: U-87 cells (IDH1 wild-type); experiment: Cytotoxicity, sphere culture with LDL, combination with ezetimibe (ATP); assay type: cell-based, human; details: 7 days, LDL 5 µg/mL
Protocol: U-87 cells were cultured for 7 days in sphere medium supplemented with LDL at a concentration of 5 µg/mL, with either ezetimibe (a cholesterol absorption inhibitor) added at 3.3, 10, or 30 µM, Compound 1 added at 1 µM, or a combination of both agents. Cell viability was calculated in the same manner as in Example 12, and the cytotoxic effects of each treatment were compared between single-agent and combination conditions.

[2] = tested on: luciferase-expressing U-87 cells; experiment: In vivo efficacy, combination with bevacizumab, orthotopic brain tumor (IVIS imaging); details: Compound 1 10 mg/kg twice daily (once daily from day 30) + bevacizumab 1 mg/kg twice weekly; brain tumors in immunodeficient mice
Protocol: Luciferase-expressing U-87 cells, in which the luminescent enzyme luciferase was forcibly expressed, were established (obtained from ATCC (American Type Culture Collection)). 1 x 10^6 of these cells were implanted into the brains of immunodeficient mice to establish brain tumors. On day 18 after tumor cell implantation, administration was initiated with Compound 1 at 10 mg/kg (twice daily) and bevacizumab at 1 mg/kg (twice weekly). On day 30, the dosing frequency of Compound 1 was reduced to once daily. The efficacy of each monotherapy and the combination therapy was evaluated by quantifying orthotopic tumor progression using an IVIS Imaging System and comparing the results.

MC38 cells = experiment: In vivo efficacy, combination with ipilimumab, MC38 tumors; parameters: species or system C57BL/6J mice; details: Compound 1 3 mg/kg or 30 mg/kg once daily + ipilimumab 5 mg/kg once weekly; MC38, subcutaneous
Protocol: MC38 cells (3 x 10^5) were subcutaneously implanted into C57BL/6J mice (n = 6) to establish tumors. On day 12 after implantation, administration was initiated with Compound 1 at 3 mg/kg or 30 mg/kg (once daily) and ipilimumab (an anti-CTLA-4 antibody) at 5 mg/kg (once weekly), and the efficacy of each monotherapy and the combination therapy was compared.
Tumor volume was calculated using the following formula based on the short and long diameters of the tumor measured with digital calipers (Mitutoyo). [formula]
The antitumor effect was evaluated by comparing the vehicle-treated control group with the test substance-treated group, and calculating T/C using the following formula. [formula]

CC1(C)Oc2cc(Cl)ccc2[C@@H]2OCC3(CCN(CCn4ccnc4)CC3)C[C@H]21 [Compound 1, (4'aR,10'bR)-8'-chloro-1-[2-(1H-imidazol-1-yl)ethyl]-5',5'-dimethyl-4'a,10'b-dihydro-2'H,4'H,5'H-spiro[piperidine-4,3'-pyrano[3,2-c][1]benzopyran] diphosphate]
cytotoxicity of the combination of Compound 1 and ezetimibe ([1]; Compound 1 1 µM + ezetimibe 3.3, 10, or 30 µM): potent cytotoxic effects
cytotoxicity, single agent ([1]; Compound 1 at 1 µM): low cytotoxicity
antitumor effect in combination with bevacizumab [2]: remarkably enhanced antitumor effect
antitumor effect in combination with ipilimumab (MC38 cells): remarkably pronounced antitumor effect
